The record followed here is patent US5049506A, “Proline-containing decapeptides as substrates for factor XIII” (Behringwerke Aktiengesellschaft, priority 1987, dated 1991).

Non-standard residues stand in square brackets, D forms with d. Residues, ends and D or L forms follow the SMILES beside them. Hyp = O=C(O)[C@@H]1C[C@@H](O)CN1

For the assay, the target named is T1, factor XIII (Homo sapiens, UniProt P00488).
T1 sequence (P00488 39-732 limits assumed): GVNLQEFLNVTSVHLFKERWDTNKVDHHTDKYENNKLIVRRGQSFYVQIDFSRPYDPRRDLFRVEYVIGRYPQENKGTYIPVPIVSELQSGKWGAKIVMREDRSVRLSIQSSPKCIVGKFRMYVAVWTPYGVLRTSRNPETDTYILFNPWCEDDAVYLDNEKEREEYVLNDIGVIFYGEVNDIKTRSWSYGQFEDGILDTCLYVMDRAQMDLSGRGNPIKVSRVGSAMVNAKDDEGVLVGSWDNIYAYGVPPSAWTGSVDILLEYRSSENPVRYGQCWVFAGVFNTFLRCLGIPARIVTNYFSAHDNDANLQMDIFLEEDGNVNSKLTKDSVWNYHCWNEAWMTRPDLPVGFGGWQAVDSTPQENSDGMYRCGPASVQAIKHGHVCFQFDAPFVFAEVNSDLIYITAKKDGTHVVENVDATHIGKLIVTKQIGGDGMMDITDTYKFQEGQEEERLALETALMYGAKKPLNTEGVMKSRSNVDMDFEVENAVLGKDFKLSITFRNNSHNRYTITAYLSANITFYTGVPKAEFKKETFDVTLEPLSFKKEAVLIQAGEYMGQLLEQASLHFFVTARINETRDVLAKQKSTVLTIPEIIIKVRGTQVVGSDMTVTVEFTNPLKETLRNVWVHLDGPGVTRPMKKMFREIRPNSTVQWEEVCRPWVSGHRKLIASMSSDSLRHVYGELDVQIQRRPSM
The experiment in a line: Determination of factor XIII activity by photometric measurement (peptide as substrate, NADH/GLDH-coupled ammonia detection). The class given is biochemical. Particulars: decrease in extinction at 340 nm; factor XIII 0.6 U activated with thrombin at 37° C. for 10 min; 100 μl decapeptide amide solution (10 mg/ml in H2O); glycine ethyl ester. The method, then:
To test the peptides for their suitability as substrates for the transglutaminase F XIII, a sample solution which contains factor XIII is activated in a buffer mixture which contains about 30mmol/1 calcium chloride at pH 7.6±0.5 with thrombin. The peptide solutions, a solution of an amine derivative, for example glycine ethyl ester or glycine methyl ester, ketoglutarate buffer, glutamic dehydrogenase and an NADH solution are then added. The liberation of ammonia from the decapeptide amide is then measured by means of the decrease in extinction at 340±15nm, and the activity of F XIII is determined.
50 μl of a solution containing factor XIII (0.6 U), which had been adjusted to pH 7.6 and which contained 50 millimolar HEPES, 150 milli molar sodium chloride and 30 millimolar CaC12, were incubated with 25 μl of thrombin solution (30 units dissolved in 1 ml physiological saline) in a 1 ml cuvette at 37° C. for 10 min. 700 μl of a buffer solution composed of triethanolamine pH 8.0, 2.2 g of alpha-ketoglutarate/liter and 133 mg of NADH/liter were added. The sample solution was then mixed with 25 μl of a solution of […] of glutamic dehydrogenase (about 120 units/mg), 100 ml of glycerol, pH 7, 100 μl of glycine ethyl ester (30 mg/ml in H2 O) and 100 μl of decapeptide amide solution (10 mg/ml in H2 O). The decrease in extinction was measured. The results of the kinetic measurement at 340 nm are to be found in the form of delta OD/min values in the following Tables.

Consider `CC(C)C[C@H](NC(=O)[C@@H](NC(=O)[C@H](CCCCN)NC(=O)[C@H](CO)NC(=O)[C@H](CCC(N)=O)NC(=O)CNC(=O)[C@@H]1C[C@@H](O)CN1C(=O)CNC(=O)[C@@H](N)CC(C)C)C(C)C)C(=O)NCC(N)=O` [Leu--Gly--Hyp--Gly--Gln--Ser--Lys--Val--Leu--Gly--NH2] (H-LG[Hyp]GQSKVLG-NH2), for which the “Delta OD/min” value was determined as 0.27 OD/min. The same measure for `CC[C@H](C)[C@H](NC(=O)[C@@H](NC(=O)[C@H](CCCCN)NC(=O)[C@H](CO)NC(=O)[C@H](CCC(N)=O)NC(=O)CNC(=O)[C@@H]1CCCN1C(=O)CNC(=O)[C@@H](N)CC(C)C)C(C)C)C(=O)NCC(N)=O` [Leu--Gly--Pro--Gly--Gln--Ser--Lys--Val--Ile--Gly--NH2] (H-LGPGQSKVIG-NH2): 0.35 OD/min; for `CC(C)C[C@H](NC(=O)[C@@H](NC(=O)[C@H](CCCCN)NC(=O)[C@H](CO)NC(=O)[C@H](CCC(N)=O)NC(=O)CNC(=O)[C@@H]1CCCN1C(=O)CNC(=O)[C@@H](N)CC(C)C)C(C)C)C(=O)NCC(N)=O` [Leu--Gly--Pro--Gly--Gln--Ser--Lys--Val--Leu--Gly--NH2] (H-LGPGQSKVLG-NH2): 0.32 OD/min.
